Results taken from patent US11376580B2, “Methods and systems comprising modified pipettes for transferring and preserving biomaterial” (UNIVERSITY OF PITTSBURGH—OF THE COMMONWEALTH SYSTEM OF …, priority 2017, dated 2022).
Like-named read-outs stand apart in the source and are kept apart here.

Tests used:
HEK293 cells [1] = tested on: HEK293 cells
[2] = tested on: primary human hepatocytes
in vitro [3] = conditions: human
in vitro [4] = conditions: human; remark: listed apart in the source
HEK293 cells [5] = tested on: HEK293 cells; remark: listed apart in the source
in vitro [6] = conditions: human; remark: listed apart in the source
[7] = tested on: Human primary hepatocytes; type: in vitro ADME
[8] = tested on: primary human hepatocytes; conditions: for Metabolite Generation (marker metabolite of the probe): 10 uM
Description: Probe metabolism was tested as a fresh hepatocyte suspension culture, as a fresh agarose gelled BioActivator and after thawing a cryopreserved BioActivator. In all three testing conditions 50,000 viable hepatocytes were tested as following: (a) as a suspension in 500 μl of probe media, or, (b) in 50 μl of gelled agarose submerged in 450 μl of probe media. Cryopreserved BioActivators were thawed for testing after 48 hours at −80° C. Probe media was collected from the 3 test conditions at 30 minutes and 18 hours. Ice-cold acetonitrile containing 10 μM chlorzoxazone (internal extraction standard) was added at a 2:1 ratio to the collected media. The extraction mixture was analyzed by LC MS/MS.

[9] = HEK293 Cytotoxicity LC50, HEK293 + BioActivator
[10] = HEK293 Cytotoxicity LC50, HEK 293 + cell free agarose beads
[11] = HEK293 Cytotoxicity LC50, HEK293 + BioActivator Pre-Conditioned Media
[12] = HEK293 Cytotoxicity LC50, HEK 293 + Cell Free Agarose Bead Pre-Conditioned Media
[13] = HEK293 Cytotoxicity LC50, HEK293 + BioActivator, co-cultured 24 hours with BioActivators, Mean ± SD (N = 3), max 250 μM
[14] = HEK293 Cytotoxicity LC50, HEK 293 + cell free agarose beads, co-cultured 24 hours with cell free agarose beads, Mean ± SD (N = 3), max 250 μM
[15] = HEK293 Cytotoxicity LC50, HEK293 + BioActivator Pre-Conditioned Media, compounds pre-conditioned 24 h in BioActivator, then 24 h on HEK293, Mean ± SD (N = 3)

For `Nc1ccc2ccccc2c1` [2-Napthylamine, 2-Napthylamine], the “HEK293 cytotoxicity co-cultured with BioActivator (in words)” value (HEK293 cells [1]) was “No HEK293 cytotoxicity”, the “HEK293 cytotoxicity co-cultured with cell free agarose bead (in words)” value (HEK293 cells [1]) was “No HEK293 cytotoxicity” and the CC50 [2] was over 250 µM.

In the case of `O=[N+]([O-])c1ccc(O)cc1` [4-Nitrophenol, 4-Nitrophenol], the CC50 (in vitro [3]; [9]) is reported as 101 µM, the CC50 (in vitro [3]; [10]) is reported as over 250 µM and the CC50 (in vitro [4]; [11]) is reported as 199 µM. For the same compound, the CC50 (in vitro [4]; [12]) was over 250 µM, the “HEK293 cytotoxicity of compounds pre-conditioned in the BioActivator (in words)” value (HEK293 cells [5]) was “produce cytotoxicity” and the CC50 (in vitro [6]) was over 250 µM.

For `Nc1cc2c3ccccc3ccc2c2ccccc12` [6-Aminochrysene], the CC50 (in vitro [3]; [13]) was 84 ± 2 µM, the CC50 (in vitro [3]; [14]) was over 250 µM and the CC50 (in vitro [4]; [15]) was 241 ± 9.8 µM. The “HEK293 cytotoxicity of compounds pre-conditioned in the BioActivator (in words)” value (HEK293 cells [5]; compared to compounds pre-conditioned in cell free agarose beads) was “produce cytotoxicity” and the CC50 (in vitro [6]) was over 250 µM.

`C=CC(N)=O` [Acrylamide] showed a CC50 (in vitro [3]; [9]) of 167 ± 7.9 µM, a CC50 (in vitro [3]; [10]) of over 250 µM and a CC50 (in vitro [4]; [11]) of over 250 µM. It also gave a CC50 (in vitro [4]; [12]) of over 250 µM and a CC50 (in vitro [6]) of over 250 µM.

With `c1ccc2c(c1)cc1ccc3cccc4ccc2c1c34` [Benzo[a]pyrene] the “HEK293 cytotoxicity co-cultured with BioActivator (in words)” value (HEK293 cells [1]; 24 h co-culture with BioActivator, up to 250 μM, compared to cell free agarose bead) was “No HEK293 cytotoxicity”, the “HEK293 cytotoxicity co-cultured with cell free agarose bead (in words)” value (HEK293 cells [1]; 24 h co-culture with cell free agarose bead, up to 250 μM) was “No HEK293 cytotoxicity” and the CC50 (in vitro [3]; [13]) was over 250 µM. The CC50 (in vitro [3]; [14]) was over 250 µM, the CC50 (in vitro [4]; [15]) was over 250 µM and the CC50 (in vitro [6]) was over 250 µM.

For `O=P1(N(CCCl)CCCl)NCCCO1` (stereo not shown) [Cyclophosphamide], the “HEK293 cytotoxicity co-cultured with BioActivator (in words)” value (HEK293 cells [1]; human) was “No HEK293 cytotoxicity”, the “HEK293 cytotoxicity co-cultured with cell free agarose bead (in words)” value (HEK293 cells [1]; human) was “No HEK293 cytotoxicity” and the CC50 (in vitro [3]; [9]) was over 250 µM. It also gave a CC50 (in vitro [3]; [10]) of over 250 µM, a CC50 (in vitro [4]; [11]) of over 250 µM and a CC50 (in vitro [4]; [12]) of over 250 µM. For the same compound, the CC50 (in vitro [6]) was over 250 µM.

In the case of `O=C(O)Cc1ccccc1Nc1c(Cl)cccc1Cl` [Diclofenac], the “Metabolite generation in slotted pipette tip compared with control hepatocyte suspension cultures (in words)” value [7] is reported as “compare favorably”, the “Effect of cryopreservation on hepatocyte clearance of probe (in words)” value [8] is reported as “minimal impact” and the “Metabolite Generation (marker metabolite of the probe)” value ([8]; human, 30 min) is reported as 0.98 pmol/min/10^6 hepatocytes.

For `COc1cccc2c1C(=O)c1c(O)c3c(c(O)c1C2=O)C[C@@](O)(C(=O)CO)C[C@@H]3O[C@H]1C[C@H](N)[C@H](O)[C@H](C)O1` [Doxorubicin], the “HEK293 cytotoxicity co-cultured with BioActivator (in words)” value (HEK293 cells [1]; human) was “measurable LC50 responses”, the “HEK293 cytotoxicity co-cultured with cell free agarose bead (in words)” value (HEK293 cells [1]; human) was “measurable LC50” and the CC50 (in vitro [3]; [13]) was 59 ± 5.1 µM. For the same compound, the CC50 (in vitro [3]; [14]) was 108 ± 9.3 µM, the CC50 (in vitro [4]; [15]) was 71 ± 2.7 µM and the “HEK293 cytotoxicity of compounds pre-conditioned in the BioActivator (in words)” value (HEK293 cells [5]) was “produce cytotoxicity”. For the same compound, the CC50 (in vitro [6]) was 104 ± 4.6 µM, the “Cytotoxicity in BioActivator hepatocytes at end of co-culture (in words)” value [2] was “cytotoxicity was evident” and the “Cytotoxicity in BioActivator hepatocytes at end of co-culture (in words)” value ([2]; human) was “LC50 responses”.

In the case of `CCOc1ccc(NC(C)=O)cc1` [Phenacetin], the “Metabolite generation in slotted pipette tip compared with control hepatocyte suspension cultures (in words)” value [7] is reported as “compare favorably”.

With `O=C1OC(c2ccc(O)cc2)(c2ccc(O)cc2)c2ccccc21` [Phenolphthalein] the “Metabolite generation in slotted pipette tip compared with control hepatocyte suspension cultures (in words)” value [7] was “compare favorably”, the “Effect of cryopreservation on hepatocyte clearance of probe (in words)” value [8] was “minimal impact” and the “Metabolite Generation (marker metabolite of the probe)” value ([8]; 30 min) was 0.12 pmol/min/10^6 hepatocytes. For the same compound, the “Metabolite Generation (marker metabolite of the probe)” value ([8]; 18 h) was 0.02 pmol/min/10^6 hepatocytes.

For `O=c1ccc2ccccc2o1` [coumarin], the “Metabolite generation in slotted pipette tip compared with control hepatocyte suspension cultures (in words)” value [7] was “compare favorably”.

In the case of Aflatoxin B1, the “HEK293 cytotoxicity co-cultured with BioActivator (in words)” value (HEK293 cells [1]) is reported as “No HEK293 cytotoxicity” and the “HEK293 cytotoxicity co-cultured with cell free agarose bead (in words)” value (HEK293 cells [1]) is reported as “No HEK293 cytotoxicity”.
